In data set [1] the test system is pentagastrin-stimulated acid secretion of the perfused rat stomach. Put plainly: Secretion-inhibiting action on the perfused rat stomach (pentagastrin-stimulated acid secretion, intraduodenal administration in vivo). Conditions: intraduodenal, dose 1 μmol/kg i.d., anesthetized female CD rat. The text has this:
Testing of the Secretion-Inhibiting Action on the Perfused Rat Stomach
In Table A which follows, the influence of the compounds according to the invention on the pentagastrin-stimulated acid secretion of the perfused rat stomach after intraduodenal administration in vivo is shown.
The abdomen of anesthetized rats (CD rat, female, 200-250 g; 1.5 g/kg i.m. urethane) was opened after tracheotomy by a median upper abdominal incision and a PVC catheter was fixed transorally in the esophagus and another via the pylorus such that the ends of the tubes just projected into the gastric lumen. The catheter leading form the pylorus led outward into the right abdominal wall through a side opening.
After thorough rinsing (about 50-100 ml), warm (37° C.) physiological NaCl solution was continuously passed through the stomach (0.5 ml/min, pH 6.8-6.9; Braun-Unita I). The pH (pH meter 632, glass electrode EA 147; φ=5 mm, Metrohm) and, by titration with a freshly prepared 0.01 N NaOH solution to pH 7 (Dosimat 665 Metrohm), the secreted HCl were determined in the effluent in each case collected at an interval of 15 minutes.
The gastric secretion was stimulated by continuous infusion of 1 μg/kg (=1.65 ml/h) of i.v. pentagastrin (left femoral vein) about 30 min after the end of the operation (i.e. after determination of 2 preliminary fractions). The substances to be tested were administered intraduodenally in a 2.5 ml/kg liquid volume 60 min after the start of the continuous pentagastrin infusion.
The body temperature of the animals was kept at a constant 37.8-38° C. by infrared irradiation and heat pads (automatic, stepless control by means of a rectal temperature sensor).

Structures are written as SMILES.

On to `CCc1cccc(C)c1CNc1cc(C(=O)N(C)C)cc2[nH]c(C)nc12` [Example 49, 6-(N,N-Dimethylaminocarbonyl)-4-(2-ethyl-6-methyl-benzylamino)-2-methyl-1H-benzimidazole], for which the melting point – broadly, the temperature of the solid-liquid transition – is 228 to 230 °C. Besides, in data set [1], the inhibition in vivo (commonly how much of the control response was suppressed) at 1 µmol/kg is over 50%.
The like results for `Cc1nc2c(O[C@@H]3c4ccccc4C[C@H]3O)cc(C(=O)N(C)C)cc2n1C.O=C(O)C(=O)O` (relative stereo) [Example 10, 4-(trans-2,3-Dihydro-2-hydroxy-1-indenyloxy)-6-(N,N-dimethylaminocarbonyl)-1,2-dimethyl-1H-benzimidazole Oxalate] were, in that order, 144 to 145 °C and over 50%.
As for `Cc1cccc(C)c1CNc1cc(C(=O)N(C)C)cc2c1nc(C)n2C` [Example 46, 6-(N,N-Dimethylaminocarbonyl)-4-(2,6-dimethyl-benzylamino)-1,2-dimethyl-1H-benzimidazole], the melting point fell in the range of 142 to 143 °C. In addition, the inhibition in vivo at 1 µmol/kg in data set [1] was over 50%.
Take `CNC(=O)c1cc(NCc2c(C)cccc2C)c2nc(C)n(C)c2c1` [Example 55, 4-(2,6-Dimethyl-benzylamino)-1,2-dimethyl-6-(N-methylaminocarbonyl)-1H-benzimidazole]: the melting point lay in the range of 252 to 253 °C. In addition, the inhibition in vivo at 1 µmol/kg in data set [1] is over 50%.
The like results for `CCc1cccc(C)c1CNc1cc(C(=O)N(C)C)cc2c1nc(COC)n2C` [Example 42, 6-(N,N-Dimethylaminocarbonyl)-4-(2-ethyl-6-methyl-benzylamino)-2-methoxymethyl-1-methyl-1H-benzimidazole] were, in that order, 154 °C and over 50%.
The like results for `CCc1cccc(C)c1CNc1cc(C(=O)NCCO)cc2c1nc(C)n2C` [Example 35, 4-(2-Ethyl-6-methyl-benzylamino)-6-(2-hydroxyethyl-aminocarbonyl)-1,2-dimethyl-1H-benzimidazole] were, in that order, 200 to 201 °C and over 50%.
Compound `CCc1cccc(C)c1COc1cc(C(=O)N(C)C)cc2c1nc(C)n2C` [Example 8, 6-(N,N-Dimethylaminocarbonyl)-4-(2-ethyl-6-methyl-benzyloxy)-1,2-dimethyl-1H-benzimidazole] returned a melting point of 161 to 162 °C. In data set [1], the inhibition in vivo at 1 µmol/kg is over 50%.
The like results for `Cc1nc2c(O[C@H]3c4ccccc4C[C@@H]3O)cc(C(=O)N(C)C)cc2n1C.O=C(O)C(=O)O` [Example 11, 4-[(1S,2S)-2,3-Dihydro-2-hydroxy-1-indenyloxy]-6-(N,N-dimethylaminocarbonyl)-1,2-dimethyl-1H-benzimidazole Oxalate] were, in that order, 126 to 127 °C and over 50%.
`COCc1nc2c(NCc3c(C)cccc3C)cc(C(=O)N(C)C)cc2n1C` [Example 43, 6-(N,N-Dimethylaminocarbonyl)-4-(2,6-dimethyl-benzylamino)-2-methoxymethyl-1-methyl-1H-benzimidazole] had a melting point of 156 to 157 °C. The same compound returned an inhibition in vivo at 1 µmol/kg in data set [1] of over 50%.
The like results for `CCc1cccc(C)c1CNc1cc(C(=O)N2CCCC2)cc2c1nc(C)n2C` [Example 40, 4-(2-Ethyl-6-methyl-benzylamino)-1,2-dimethyl-6-(pyrrolidinocarbonyl)-1H-benzimidazole] were, in that order, 126 °C and over 50%.
In turn, `Cc1nc2c(O[C@@H]3c4ccc(Cl)cc4C[C@H]3O)cc(C(=O)N(C)C)cc2n1C.O=C(O)C(=O)O` (relative stereo) [Example 19, 4-(trans-5-Chloro-2,3-dihydro-2-hydroxy-1-indenyloxy)-6-(N,N-dimethylaminocarbonyl)-1,2-dimethyl-1H-benzimidazole Oxalate] came in with a melting point of 158 to 159 °C. Besides, the inhibition in vivo at 1 µmol/kg in data set [1] was over 50%.

Source of the values: patent US20060194969A1, “4-Substituted benzimidazoles and their uses as inhibitors of gastric secretion” (priority 2002, published 2006).
